Legend:
site 2 of the VGSC = assay: [3H]-BTX-B displacement assay at site 2; assay type: binding, rat
PC-3 cells [1] = assay: PC-3 MTT cell viability assay; assay type: cell-based; details: Homo sapiens, read-out: GI50 ± SEM (10 μM), DPH and JDA-3-135 previously determined
Excerpt: Following the determination that compound CDPNS inhibits the VGSCs that are present in androgen independent PC-3 cells, a 3-(4,5-Dimethylthiazol-2-yl)-2,5-diphenyltetrazolium bromide (MTT) cell viability assay was utilized to measure the ability of compound CDPNS to inhibit PC-3 cell growth via VGSC blockade. In this experiment data yielded from CDPNS was compared to previously determined DPH and JDA-3-135 antiproliferation data (Table 10).

PC-3 cells [2] = assay: PC-3 cell growth inhibition assay (WST-8); assay type: cell-based; details: Homo sapiens, WST-8, 48 hours
Procedure: The effect of compound 2 was studied on the proliferation of human androgen independent prostate cancer (PC-3) cells, using a cell viability assay with WST-8. […].
PC-3 cells were added to the wells of a 96 well plate at 7500 cells per well in 100 uL of RPMI medium with 10% serum and allowed to plate down overnight. The medium was then removed and replaced with serum free medium containing the appropriate concentration of drug. DMSO concentration was kept below 1%. At this time WST-8 cell counting reagent was added to the control (T=0) wells and allowed to incubate for 2 hours and the absorbance was read at 450 nm to determine the starting number of cells per well. The plates were incubated for 48 hours, the medium was removed and the wells were washed with 100 uL of PBS. The PBS was removed that the wells were filled with 110 uL of serum free RPMI media containing the WST-8 reagent. After two hours of incubation, the plates absorbance was read at 450 nm and normalized to the control value.

hNav1.7 = target: T1, hNav1.7 (Homo sapiens, UniProt Q15858); assay: Fluorescent (FRET) based sodium channel assay, hNav1.7; assay type: cell-based; details: HEK293 stably transfected with hNav1.7, 20 μM veratridine, read-out: hNav 1.7 IC50
T1 construct: expressed in transfected cells; host or cells: HEK293
Procedure: Two isoforms of the channel were examined: hNav1.5, a cardiac sodium channel associated with arrhythmias, and hNav1.7, an isoform found in the peripheral nervous system.
HEK293 cells stably transfected with either hNav1.5 or hNav1.7 were plated at approximately 11,000-20,000 cells/well in flat bottom, poly-D-lysine coated black-wall, clear-bottom, 384-well plates (Becton Dickinson, Bedford, Mass.), and incubated overnight at 37° C. in a 10% CO2 atmosphere in growth medium. Cells were washed with 0.03 mL of Dulbecco's phosphate buffered saline (D-PBS) containing calcium and magnesium. Cells were then incubated with 0.025 mL of a solution containing 10 μM CC2-DMPE and 0.02% pluronic acid in D-PBS with calcium and magnesium; supplemented with 10 mM glucose, and 10 mM Hepes-NaOH, pH 7.4. […] Afterwards, cells were incubated in the dark at 25° C. for 45 min with 0.025 mL of a solution containing 5 μM DiSBAC2(3) in VIPR-S, in the absence or presence of test compound. At the end of the incubation period, the plate was placed in a FLIPR TETRA instrument (MDS Analytical Technologies, Sunnyvale Calif.), illuminated at 390-420 nm, and fluorescence emissions were recorded at approximately 1 Hz at 460 and 580 nm. Following a 7 second baseline reading, 0.025 mL of VIPR-S containing 10 μM veratridine for Nav1.5 or 20 μM veratridine for Nav1.7 was added to each well, and the emissions of both dyes were recorded for an additional 33 seconds. The change in fluorescence resonance energy transfer (FRET) ratio (F/F0) was calculated as: F/F0=((A460/A580/(I460/I580) where A and I represent the readings after or before addition of veratridine, respectively, at the indicated wavelengths. For I, the readings from 2-5 seconds were averaged, and for A, readings from 3 seconds after the signal had reached a plateau level (usually within 30-40 s) were also averaged. Triplicate measurements were performed for each experimental condition and the data were averaged.

[3] = test system: Na+ channel site 2 binding site; assay: [3H]-BTX assay, rat forebrain membranes; details: ± S.E.M., n in brackets
Procedure: In order to determine if the hermitamides bind to the sodium channel, the natural products, their enantiomers, and the racemic mixture were tested for their ability to displace [^3H]-batrachatoxin. Batrachatoxin is a lipid-soluble neurotoxin that binds to site 2 of the sodium channel. This site is known to overlap with the local anesthetic binding […]. Ligands known to bind to […] of the sodium channel include anesthetics, anticonvulsants and antiarrthymics. As a control, phenyloin, a clinically-used sodium channel blocker that is known to displace [^3H]BTX was also included.
The assays were run at 10 μM and recorded as percent displacement of BTX.
Briefly, rat forebrain membranes (10 mg tissue/well) were incubated with [^3H]-BTX (30-60 Ci/mmol). […] The reaction was terminated by rapid vacuum filtration of the reaction contents onto glass fiber filters. Radioactivity trapped onto the filters was determined and compared with control values to ascertain any interactions of the test compound with the Na^+ channel site 2 binding site. Aconitine (1 μM) was used as a positive control (Sigma Aldrich, Inc., St. Louis, Mo.).

T1 sequence (Q15858 whole entry): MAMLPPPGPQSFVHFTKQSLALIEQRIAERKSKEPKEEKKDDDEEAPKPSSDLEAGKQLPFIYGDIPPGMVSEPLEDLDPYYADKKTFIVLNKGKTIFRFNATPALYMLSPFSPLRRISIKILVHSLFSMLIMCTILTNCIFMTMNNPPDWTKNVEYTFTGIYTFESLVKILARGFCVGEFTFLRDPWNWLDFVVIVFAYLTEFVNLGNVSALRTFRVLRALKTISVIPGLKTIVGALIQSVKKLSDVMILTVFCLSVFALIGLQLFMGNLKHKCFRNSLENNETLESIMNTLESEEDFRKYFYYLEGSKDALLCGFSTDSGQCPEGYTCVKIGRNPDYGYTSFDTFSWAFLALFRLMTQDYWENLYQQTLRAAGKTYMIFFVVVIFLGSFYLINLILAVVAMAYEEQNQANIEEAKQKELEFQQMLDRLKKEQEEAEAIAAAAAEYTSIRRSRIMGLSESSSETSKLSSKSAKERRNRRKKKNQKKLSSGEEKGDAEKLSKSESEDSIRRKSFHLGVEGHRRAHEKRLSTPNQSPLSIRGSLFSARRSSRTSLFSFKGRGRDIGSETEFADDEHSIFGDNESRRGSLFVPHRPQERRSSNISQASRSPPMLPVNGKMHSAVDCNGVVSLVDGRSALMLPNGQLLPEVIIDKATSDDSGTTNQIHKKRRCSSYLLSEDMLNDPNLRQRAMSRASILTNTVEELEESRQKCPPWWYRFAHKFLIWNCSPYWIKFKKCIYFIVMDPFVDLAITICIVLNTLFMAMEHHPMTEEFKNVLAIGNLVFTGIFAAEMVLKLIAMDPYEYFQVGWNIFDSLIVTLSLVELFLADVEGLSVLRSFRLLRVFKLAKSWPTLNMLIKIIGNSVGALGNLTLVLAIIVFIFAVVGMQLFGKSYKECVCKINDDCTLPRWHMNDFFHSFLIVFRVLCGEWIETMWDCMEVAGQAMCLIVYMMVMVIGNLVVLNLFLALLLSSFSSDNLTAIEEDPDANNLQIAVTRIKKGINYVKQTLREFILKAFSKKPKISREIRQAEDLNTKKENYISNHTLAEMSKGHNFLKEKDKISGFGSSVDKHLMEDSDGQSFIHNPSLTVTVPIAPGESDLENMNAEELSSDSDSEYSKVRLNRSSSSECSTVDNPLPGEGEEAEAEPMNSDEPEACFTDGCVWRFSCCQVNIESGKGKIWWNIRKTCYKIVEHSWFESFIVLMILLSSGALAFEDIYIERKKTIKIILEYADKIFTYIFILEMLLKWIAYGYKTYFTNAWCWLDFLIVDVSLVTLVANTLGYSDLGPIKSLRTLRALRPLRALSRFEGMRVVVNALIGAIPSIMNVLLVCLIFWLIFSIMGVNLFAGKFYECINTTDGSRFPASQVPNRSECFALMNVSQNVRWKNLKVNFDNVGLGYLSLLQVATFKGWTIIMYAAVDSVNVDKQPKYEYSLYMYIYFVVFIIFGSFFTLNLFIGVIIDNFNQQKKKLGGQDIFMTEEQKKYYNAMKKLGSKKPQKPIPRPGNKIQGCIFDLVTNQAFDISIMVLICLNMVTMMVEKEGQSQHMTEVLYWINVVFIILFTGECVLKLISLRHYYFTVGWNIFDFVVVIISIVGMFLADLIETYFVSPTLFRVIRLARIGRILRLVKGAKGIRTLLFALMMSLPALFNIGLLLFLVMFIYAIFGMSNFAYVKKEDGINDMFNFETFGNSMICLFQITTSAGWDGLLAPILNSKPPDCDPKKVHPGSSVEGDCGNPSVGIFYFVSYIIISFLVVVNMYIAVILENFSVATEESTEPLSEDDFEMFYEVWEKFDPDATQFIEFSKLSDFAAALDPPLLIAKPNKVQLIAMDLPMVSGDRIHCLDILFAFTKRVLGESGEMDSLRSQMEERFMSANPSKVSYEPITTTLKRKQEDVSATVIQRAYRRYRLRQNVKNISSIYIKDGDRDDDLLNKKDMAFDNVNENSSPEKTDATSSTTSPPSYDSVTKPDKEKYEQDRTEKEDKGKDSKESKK

SMILES: O=C1NC(=O)C(c2ccccc2)(c2ccccc2)N1 [DPH, Diphenylhydantoin, reference compound]
- % [3H]-BTX Inhibition (40 μM) (site 2 of the VGSC; 40 μM, rat brain synaptoneurosomes, Table 9): 30.4 ± 3.3%
- % [3H]-BTX Displacement (40 μm) (site 2 of the VGSC; 40 μm, rat brain synaptoneurosomes, Table 13): 27.7%
- [3H]-BTX-B Binding Data, Displacement % (site 2 of the VGSC; Screen at 40 μM, 2 replicates, referenced to Aconitine): 50%
- GI50 (PC-3 cells [1]): > 100 µM
- GI50 (PC-3 cells [2]; read-out: GI50 in PC3 prostate cancer cells): > 100 µM
- GI50 (PC-3 cells [2]; read-out: PC3 GI50 (μg)): > 100 µM
- IC50 (hNav1.7): > 100 µM
- % [3H]-BTX Displacement At 10 μM [3]: 19.78 ± 1.21 (2) %

Source: patent US8816095B2, “Na channels, disease, and related assays and compositions” (Georgetown University, priority 2008, dated 2014)
